{"source": "patent US20170157051A1", "about": "“SOLUBILITY ENHANCEMENT FOR HYDROPHOBIC DRUGS” (Freund Pharmatec Ltd., priority 2013, published 2017)", "key": {"[1]": {"details": "cited from earlier work"}, "[2]": {"experiment": "Dissolution profile in biorelevant media (FaSSIF / FaSSGF), paddle apparatus", "type": "physicochemical", "details": "FaSSIF (fenofibrate, nifedipine, nimodipine, nabumetone) or FaSSGF (ibuprofen, gemfibrozil); 900 ml, 37° C., 75 rpm", "method": "Dissolution profile: The drug release profiles of the above formulations and the reference products (TRICOR ® 48 mg Fenofibrated tablets and Buplex® 200 mg Ibuprofen tablets) was tested in biorelevant dissolution media; using Fasted State Simulated Intestinal Fluid (FaSSIF) for Tricor® and Fasted State Simulated Gastric Fluid (FaSSGF) for Buplex®. USP […] (Paddle) was used.\nMedia temperature: 37° C.;\nPaddle rotation speed: 75 rpm;\nThe method used to measure the dissolution rate is as described under ‘dissolution profile’ in the previous example. […] All other conditions remained the same."}}, "note": "Where two headings read alike, the source gives them in different places.", "data": [{"smiles": "CC(C)Cc1ccc(C(C)C(=O)O)cc1", "note": "(stereo not shown) [Ibuprofen, iso-butyl-propanoic-phenolic acid]", "values": [{"measurement": "solubility in water", "setting": "[1]", "value": "Less than 1 mg/ml"}, {"measurement": "% drug dissolved / rate and extent of dissolution versus marketed product", "setting": "[2]", "value": "1:2.7 ratio of Maisine:Kolliphor showed higher dissolution than a 1:1.8 ratio"}]}, {"smiles": "Cc1ccc(C)c(OCCCC(C)(C)C(=O)O)c1", "note": "[Gemfibrozil]", "values": [{"measurement": "solubility in water", "setting": "[1]; at 25° C.", "value": "< 1000", "unit": "µg/mL"}]}, {"smiles": "COc1ccc2cc(CCC(C)=O)ccc2c1", "note": "[Nabumetone]", "values": [{"measurement": "solubility in water (in words)", "setting": "[1]", "value": "practically insoluble in water"}]}]}
